Reference: patent US5342851A, “Substituted thiazole derivatives useful as platelet aggregation inhibitors” (McNeil-PPC, Inc., priority 1992, dated 1994)
Where a name gives a salt, the structure may show the parent alone.

Assays:
[1] = tested on: activated platelets (125I-fibrinogen binding); assay: Fibrinogen Binding (125I-fibrinogen binding to activated platelets); details: read-out: Binding (IC50, concentration of compound which provides 50% fibrinogen binding); thrombin-stimulated platelets; 0.15 μM 125I-fibrinogen
Procedure: The compounds of the invention as identified above are evaluated for platelet aggregation inhibition activity as indicated by the percentage of nonaggregated platelets which are available for binding in accordance with the following procedure.
Briefly, 40 mL of PRP (obtained from Biological Specialty Corp., Lansdale, Pa.) are centrifuged at 120×g to remove contaminating red cells. Aspirin (50 μM) is added and the PRP is incubated at 37° C. for 20 minutes. […] Platelets are concentrated by a 300×g centrifugation (10 minutes) and the pellet is resuspended in 4 mL. of Tyrode's buffer. The platelet suspension (4 mL) is gel-filtered through a Sepharose-2B column (50 mL bed volume). […] The binding reaction is performed in polystyrene tubes (final volume […]). Reagents are added in the following order: 80 mL of Tyrode's buffer, 50 mL of CaCl2 (final concentration (f.c.) […]) and 50 mL of thrombin (f.c. 0.1 unit/mL). The platelet suspension is then added and the mixture is allowed to incubate at room temperature for 2 minutes. Hirudin (50 mL, f.c. 0.5 unit/mL) is immediately added to prevent the catalytic activity of thrombin. […] The mixture is incubated for 10 minutes at room temperature. To terminate the binding reaction the platelets are sedimented (10,000×g for 3 minutes) through silicone oil (3:1 hi-phenol 550/methyl silicone 200, W. F. Nye, Inc., New Bedford, Mass.), in an Eppendorf centrifuge.
The amount of platelet radioactivity measured in the presence of nonlabeled fibrinogen (4 mg/mL) is considered the nonspecific binding. All samples are repeated in triplicate.
Positive percentages of fibrinogen binding indicates higher activity for inhibiting platelet aggregation since only non-aggregated or free platelets are available for fibrinogen binding.

[2] = tested on: platelets (gel-filtered platelet rich plasma); assay: Platelet Aggregation Inhibition Activity (agonist thrombin or ADP, light transmission); format: cell-based; details: for IC50: read-out: Aggregation (IC50, concentration at which the increase in light transmission equals 50%), thrombin or ADP agonist, 37° C., three minutes
Procedure: The percentage of platelet aggregation is calculated as an increase in light transmission of drug treated platelet concentrate versus control treated platelet concentrate. Blood is obtained from drug free, normal donors into tubes containing 0.13M sodium citrate (two sources are routinely used: platelet concentrate obtained from Biological Specialty Corp., Lansdale, Pa. or whole blood obtained from donors). Platelet rich plasma (PRP) is collected by centrifugation of the concentrate or whole blood at 130×g for 15 minutes at 25° C. The PRP (5 mL) is gel filtered through Sepharose 2B (bed volume 50 mL), and the platelet count is adjusted to 2×10^7 platelets per sample. The following constituents are added to a siliconized cuvette: 250 μL of the concentrated platelet filtrate, 100 μL of Tyrode's buffer (0.14M NaCl, 0.0027M KCl, 0.012M NaHCO3, 0.76 mM Na2 HPO4, 0.0055M glucose and 2 mg/mL BSA pH 7.4), 50 μL of 2 mM calcium and test drug (50 mL).
Aggregation is monitored in a dual channel Chrono-log Aggregometer for three minutes following the addition of agonist (thrombin 50 μL of 1 unit/mL, or ADP 50 μL of 100 μM). The final assay volume is 500 μL. The reaction takes place at 37° C. The peak aggregation response is calculated as the increase in light transmission units over a three minute period. The difference of the increase in light transmission between control and drug treated platelets is then expressed as a percent of the nondrug treated controls. […] A percentage increase in light transmission indicates platelet aggregation inhibition activity for the tested compound.

[3] = Homo sapiens, thrombin or ADP agonist, read-out: Aggregation (percentage increase in light transmission)

| Compound | IC50 [1] | IC50 [2] | also measured |
| --- | --- | --- | --- |
| CCN(CC)CCNC(=O)c1cnn(-c2nc(-c3cccc(C(F)(F)F)c3)cs2)c1C(F)(F)F [Example 34] | 6 µM |  |  |
| CCN(CC)CCNC(=O)c1cnn(-c2nc(-c3ccc([N+](=O)[O-])cc3)cs2)c1C(F)(F)F [Example 35] |  | 75 µM |  |
| CN(C)CCCNC(=O)c1cnn(-c2nc(-c3ccc([N+](=O)[O-])cc3)cs2)c1C(F)(F)F [Example 36] | 50 µM |  |  |
| CCN(CC)CCCNC(=O)c1cnn(-c2nc(-c3cccc(C(F)(F)F)c3)cs2)c1C(F)(F)F [Example 37] | 4 µM | 15 µM |  |
| CCCCN(CCCC)CCCNC(=O)c1cnn(-c2nc(-c3cccc(C(F)(F)F)c3)cs2)c1C(F)(F)F [Example 38] | 75 µM | 56 µM |  |
| CN(C)CCCNC(=O)c1cnn(-c2nc(-c3cccc(C(F)(F)F)c3)cs2)c1C(F)(F)F [Example 39] | 16 µM | 30 µM |  |
| CCN(CC)CCCNC(=O)c1cnn(-c2nc(-c3cccc(OC)c3)cs2)c1C(F)(F)F [Example 40] | 65 µM | 30 µM |  |
| CCN(CC)CCCNC(=O)c1cnn(-c2nc(-c3ccc(OC)cc3)cs2)c1C(F)(F)F [Example 41] |  | 30 µM |  |
| CCN(CC)CCCNC(=O)c1cnn(-c2nc(-c3ccc(C)cc3)cs2)c1C(F)(F)F [Example 43] | 70 µM | 6 µM |  |
| CCCCN(CCCC)CCCNC(=O)c1cnn(-c2nc(-c3ccc(C)cc3)cs2)c1C(F)(F)F [Example 45] | 8.5 µM | 45 µM |  |
| CCN(CC)CCCNC(=O)c1cnn(-c2nc(-c3cccc(C(F)(F)F)c3)c(Br)s2)c1C(F)(F)F [Example 46] | 11.3 µM | 2.7 µM |  |
| CCN(CC)CCCNC(=O)c1cnn(-c2nc(-c3cc(OC)c(OC)c(OC)c3)cs2)c1C(F)(F)F [Example 47] |  | 5.6 µM |  |
| CCN(CC)CCCNC(=O)c1cnn(-c2nc(-c3ccccc3)cs2)c1C(F)(F)F [Example 50] | 50 µM | 30 µM |  |
| O=C(NCCN1CCCC1)c1cnn(-c2nc(-c3cccc(C(F)(F)F)c3)cs2)c1C(F)(F)F [Example 51] |  | 30 µM |  |
| CCN(CC)CCCCNC(=O)c1cnn(-c2nc(-c3cccc(C(F)(F)F)c3)cs2)c1C(F)(F)F [Example 52] |  | 6 µM |  |
| CC1CCCCN1CCCNC(=O)c1cnn(-c2nc(-c3cccc(C(F)(F)F)c3)cs2)c1C(F)(F)F (stereo not shown) [Example 54] |  | 10 µM |  |
| Cc1cccc(-c2csc(-n3ncc(C(=O)NCCN4CCCCC4)c3C(F)(F)F)n2)c1 [Example 55] |  | 30 µM |  |
| CCN(CC)CCCNC(=O)c1cnn(-c2nc(-c3ccc(C(F)(F)F)cc3)cs2)c1C(F)(F)F [Example 56] |  | 4 µM |  |
| O=C(NCCN1CCCCC1)c1cnn(-c2nc(-c3ccc(C(F)(F)F)cc3)cs2)c1C(F)(F)F [Example 57] |  | 7 µM |  |
| NCCCCCNC(=O)c1cnn(-c2nc(-c3cccc(C(F)(F)F)c3)cs2)c1C(F)(F)F [Example 61] |  | 11.5 µM |  |
| NCCCCNC(=O)c1cnn(-c2nc(-c3cccc(C(F)(F)F)c3)cs2)c1C(F)(F)F [Example 62] | 8.3 µM | 4.6 µM |  |
| O=C(NCCCN1CCCCC1)c1cnn(-c2nc(-c3cccc(C(F)(F)F)c3)cs2)c1C(F)(F)F [Example 89, 2-[4-[3-(N-Piperidino)propylcarbamoyl]-5-(trifluoromethyl)pyrazol-1-yl]-4-(3-trifluoromethylphenyl)thiazole] | 10 µM | 13 µM |  |
| O=C(NCCCN1CCCC1)c1cnn(-c2nc(-c3cccc(C(F)(F)F)c3)cs2)c1C(F)(F)F [Example 90] | 14 µM | 15 µM |  |
| Cc1c(C(=O)NCCCN2CCCCC2)cnn1-c1nc(-c2cccc(C(F)(F)F)c2)cs1 [Example 91] | 10 µM | 5 µM |  |
| Cc1ccc(-c2csc(-n3ncc(C(=O)NCCCN4CCCCC4)c3C(F)(F)F)n2)cc1 [Example 92] |  | 10 µM |  |
| Cc1ccc(-c2csc(-n3ncc(C(=O)NCCCN4CCCC4)c3C(F)(F)F)n2)cc1 [Example 93] |  | 30 µM |  |
| O=C(NCCCN1CCCCC1)c1cnn(-c2nc(-c3ccccc3)cs2)c1C(F)(F)F [Example 94] |  | 40 µM |  |

| Compound | IC50 [1] | IC50 [2] | also measured |
| --- | --- | --- | --- |
| Cc1ccc(-c2csc(-n3ncc(C(=O)NCCCNC4CCCCC4)c3C(F)(F)F)n2)cc1 [Example 96] |  | 3.5 µM |  |
| O=C(NCCCN1CCCCC1)c1cnn(-c2nc(-c3ccc(Cl)c(Cl)c3)cs2)c1C(F)(F)F [Example 97] |  | 10 µM |  |
| Cc1cccc(-c2csc(-n3ncc(C(=O)NCCCN4CCCC4)c3C(F)(F)F)n2)c1 [Example 99] |  | 30 µM |  |
| O=C(NCCCN1CCCCC1)c1cnn(-c2nc(-c3ccccc3C(F)(F)F)cs2)c1C(F)(F)F [Example 100] |  | 30 µM |  |
| O=C(NCCCN1CCCC1)c1cnn(-c2nc(-c3ccccc3C(F)(F)F)cs2)c1C(F)(F)F [Example 101] |  | 15 µM |  |
| O=C(NCCCNC1CCCCC1)c1cnn(-c2nc(-c3cccc(C(F)(F)F)c3)cs2)c1C(F)(F)F [Example 102] | 25 µM | 6 µM |  |
| O=C(NCCCNC1CCCCC1)c1cnn(-c2nc(-c3ccc(C(F)(F)F)cc3)cs2)c1C(F)(F)F [Example 105] | 44 µM | 8 µM |  |
| O=C(NCCCN1CCCCC1)c1cnn(-c2nc(-c3cccc(Cl)c3)cs2)c1C(F)(F)F [Example 106] |  | 30 µM |  |
| O=C(NCCCNC1CCCCC1)c1cnn(-c2nc(-c3cccc(Cl)c3)cs2)c1C(F)(F)F [Example 107] |  | 5 µM |  |
| O=C(NCCCNC1CCCCC1)c1cnn(-c2nc(-c3cccc(C(F)(F)F)c3)cs2)c1-c1ccccc1 [Example 108] |  | 20 µM |  |
| O=C(NCCCN1CCCCCC1)c1cnn(-c2nc(-c3cccc(C(F)(F)F)c3)cs2)c1C(F)(F)F [Example 109] |  | 6 µM |  |
| CC(C)NCCCNC(=O)c1cnn(-c2nc(-c3cccc(C(F)(F)F)c3)cs2)c1C(F)(F)F [Example 112] |  | 5 µM |  |
| CCCCNCCCNC(=O)c1cnn(-c2nc(-c3cccc(C(F)(F)F)c3)cs2)c1C(F)(F)F [Example 113] | 10 µM | 3.1 µM |  |
| CCCNCCCNC(=O)c1cnn(-c2nc(-c3cccc(C(F)(F)F)c3)cs2)c1C(F)(F)F [Example 114] | 10 µM | 7 µM |  |
| CN1CCN(CCCNC(=O)c2cnn(-c3nc(-c4cccc(C(F)(F)F)c4)cs3)c2-c2ccccc2)CC1 [Example 120] | 23 µM | 13 µM |  |
| NCCCNC(=O)c1cnn(-c2nc(-c3cccc(C(F)(F)F)c3)cs2)c1C(F)(F)F [Example 121, 2-[4-(3-Aminopropylcarbamoyl)-5-(trifluoromethyl)pyrazol-1-yl]-4-(3-trifluoromethylphenyl)thiazole Monohydrochloride] | 15 µM | 6 µM |  |
| NCCCNC(=O)c1cnn(-c2nc(-c3cccc(Cl)c3)cs2)c1C(F)(F)F [Example 122] | 10 µM | 14.7 µM |  |
| CN(C)C=NCCCNC(=O)c1cnn(-c2nc(-c3cccc(Cl)c3)cs2)c1C(F)(F)F [Example 132, 2-[4-(3-(N,N-Dimethylformamidinyl)propylcarbamoyl]5-(trifluoromethyl)pyrazol-1-yl]-4-(3-chlorophenyl)thiazole] |  | 7 µM |  |
| NCCCOCc1cnn(-c2nc(-c3cccc(C(F)(F)F)c3)cs2)c1C(F)(F)F [Example 138, 2-[4-[3-Aminopropoxymethyl]-5-(trifluoromethyl)pyrazol-1-yl]-4-(3-trifluoromethylphenyl)thiazole Hydrochloride] |  | 2.1 µM |  |
| CCN(CC)CCNC(=O)c1ccc(-c2csc(-c3ccc(Cl)cc3)n2)cc1 [Example 177] |  | 12.8 µM |  |
| CCN(CC)CCNC(=O)c1ccc(-c2csc(-c3ccc(C(C)(C)C)cc3)n2)cc1 [Example 181] |  |  | inhibition at 20 µM [2, 3]: 85% |
| COc1ccc(-c2nc(-c3ccc(C(=O)NCCCN(C)C)cc3)cs2)cc1 [Example 187] |  |  | inhibition at 20 µM [2, 3]: 89% |
| CC(C)N(CCCCNC(=O)c1ccc(-c2csc(-c3ccc(C(F)(F)F)cc3)n2)cc1)C(C)C [Example 189] |  |  | inhibition at 20 µM [2, 3]: 86% |
| CCN(CC)CCCNC(=O)c1ccc(-c2csc(COc3ccc(Cl)cc3)n2)cc1 [Example 206] |  | 5.1 µM |  |
| CCCCNCCCNC(=O)c1ccc(-c2csc(-c3ccc(C(F)(F)F)cc3)n2)cc1 [Example 218] |  |  | inhibition at 20 µM [2, 3]: 90% |
| Cn1c(C(=O)NCCCNC2CCCCC2)ccc1-c1nc(-c2cccc(C(F)(F)F)c2)cs1 [Example 236, 2-[2-(4-Cyclohexylaminopropylcarbamoyl)-1-methyl-1H-pyrrol-5-yl]-4(3-trifluoromethylphenyl)thiazole] | 13.5 µM |  |  |
| Cn1c(C(=O)NCCCN)ccc1-c1nc(-c2ccccc2)c(C(=O)O)s1 [Example 237, 2-[2-(4-Aminopropylcarbamoyl)-1-methyl-1H-pyrrol-5-yl]-4-phenyl-1,3-thiazole-5-carboxylic acid monohydrochloride monohydrate] |  |  | inhibition at 50 µM ([2]; Homo sapiens, at 50 μM, thrombin or ADP agonist, read-out: Aggregation (percentage increase in light transmission)): 68% |
